According to patent publication US20120053148A1, “INHIBITORS OF HEPATITIS C VIRUS” (GILEAD SCIENCES, INC., priority 2010, published 2012):

These compounds were tested on HCV Replicon IB (assay: HCV replicon assay in Huh-7 cells, genotype 1b (Rluc luciferase readout)). Conditions: Hepatitis C virus, 72 h; 10 uM; 1b-Rluc replicon, Huh-7 cells, 3 days; read-out: Inhibition @ 10 uM in 1b-Rluc.
Format: cell-based, hepatitis C virus
Work on `Cc1cc(C(=O)NCC2COCC(C)(C)N2)nc2c(C(F)(F)F)cc(C3CC3)cc12` (centres unmarked) [Compound 133] yielded an inhibition at 10 µM of 92.4%.
Work on `Cc1cc(C(=O)NCc2ccccn2)nc2c(C(F)(F)F)cc(C(C)C)cc12` [Compound 157] yielded an inhibition at 10 µM of 98.8%.
Compound `Cc1cc(C(=O)NCc2ccccn2)nc2c(C(C)(C)C)cc(C3CC3)cc12` [Compound 226] has an inhibition at 10 µM of 100%.
`COCCNc1nnc(-c2cc(C)c3cc(OC)cc(C(F)(F)F)c3n2)o1` [Compound 275] showed an inhibition at 10 µM of 99.7%.
`O=C(NCC1C[S+]([O-])CCN1)c1cc(Cl)c2cc(OC(F)F)cc(C(F)(F)F)c2n1` (centres unmarked) [Compound 196] gave an inhibition at 10 µM of 55%.
`Cc1cc(C(=O)NCc2ccccn2)nc2c(C(F)(F)F)cc(OC3CCCC3)cc12` [Compound 184] gave an inhibition at 10 µM of 96%.
`CCC(O)CNC(=O)c1cc(Cl)c2cc(OC(F)F)cc(C(F)(F)F)c2n1` (centres unmarked) [Compound 204] was tested, and the inhibition at 10 µM was 95.5%.
With `COc1cc(C(F)(F)F)c2nc(C(=O)NCc3ccccn3)cc(C)c2c1` [Compound 182] the inhibition at 10 µM was 99.3%.
Compound `Cc1cc(C(=O)NCc2cccc(F)n2)nc2c(C(F)(F)F)cc(C3CC3)cc12` [Compound 80] has an inhibition at 10 µM of 99.8%.
For `Cc1cc(C(=O)NC[C@H]2CCCO2)nc2c(C(F)(F)F)cc(C3CC3)cc12` [Compound 92], the inhibition at 10 µM was 100%.
`Cc1cc(-c2nnc(NCCCN3CCOCC3)o2)nc2c(C(F)(F)F)cc(C3CC3)cc12` [Compound 251] was tested, and the inhibition at 10 µM was 80.9%.
For `Cc1cc(C(=O)NCc2ccccn2)nc2c(OC(F)(F)F)cc(C3CC3)cc12` [Compound 234], the inhibition at 10 µM was 100%.
`O=C(NCc1ccccn1)c1cc(Cl)c2cc(OC(F)(F)F)cc(/C=C/c3ccccc3)c2n1` [Compound 240] showed an inhibition at 10 µM of 42.2%.
Work on `Cc1cc(-c2nnc(NCCC(C)O)s2)nc2c(C(F)(F)F)cc(C3CC3)cc12` (centres unmarked) [Compound 302] yielded an inhibition at 10 µM of 99.9%.
Work on `Cc1cccnc1CNC(=O)c1cc(C)c2cc(C3CC3)cc(C(F)(F)F)c2n1` [Compound 84] yielded an inhibition at 10 µM of 99%.
Compound `CNC(=O)CNC(=O)c1cc(C)c2cc(C3CC3)cc(C(F)(F)F)c2n1` [Compound 116] has an inhibition at 10 µM of 97.2%.
`Cc1cc(C(=O)NCCC#N)nc2c(C(F)(F)F)cc(-c3ccccc3)cc12` [Compound 104] showed an inhibition at 10 µM of 70.3%.
Work on `Cc1cc(C(=O)NCCCN2CCOCC2)nc2c(C(F)(F)F)cc(C3CC3)cc12` [Compound 122] yielded an inhibition at 10 µM of 97.2%.
`CC(=O)N1CCOCC1CNC(=O)c1cc(C)c2cc(C3CC3)cc(C(F)(F)F)c2n1` (centres unmarked) [Compound 101] was tested, and the inhibition at 10 µM was 73.3%.
Compound `Cc1cc(C(=O)NCC(O)Cc2ccccc2)nc2c(C(F)(F)F)cc(-c3ccccc3)cc12` (centres unmarked) [Compound 169] has an inhibition at 10 µM of 93%.
Work on `CS(=O)(=O)Nc1nc(C(=O)NCc2cccs2)nc2c(C(F)(F)F)cc(-c3ccccc3)cc12` [Compound 222] yielded an inhibition at 10 µM of 95.1%.
With `O=C(NC[C@@H]1C[C@@H](F)CN1)c1cc(Cl)c2cc(OC(F)F)cc(C(F)(F)F)c2n1` (single isomer, unassigned) [Compound 199] the inhibition at 10 µM was 98.1%.
`Cc1cc(-c2nnc(N)s2)nc2c(C(F)(F)F)cc(C3CC3)cc12` [Compound 305] was tested, and the inhibition at 10 µM was 96.6%.
For `CCC(=O)CNC(=O)c1cc(Cl)c2cc(OC(F)F)cc(C(F)(F)F)c2n1` [Compound 205], the inhibition at 10 µM was 99.2%.
`Cc1cc(C(=O)NCc2ccccn2)nc2c(C(F)(F)F)cc(C(C)(C)O)cc12` [Compound 161] showed an inhibition at 10 µM of 76.7%.
With `O=C(NCc1ccccn1)c1cc(Cl)c2cc(OC(F)F)cc(C(F)(F)F)c2n1` [Compound 194] the inhibition at 10 µM was 99.5%.
With `Cc1cc(C(=O)NCCCO)nc2c(C(F)(F)F)cc(C3CC3)cc12` [Compound 121] the inhibition at 10 µM was 99.2%.
`N#Cc1cc(C(=O)NCc2ccccn2)nc2c(C(F)(F)F)cc(C3CC3)cc12` [Compound 215] showed an inhibition at 10 µM of 99.4%.
`Cc1cc(C(=O)NCC(O)c2ccccc2)nc2c(C(F)(F)F)cc(-c3ccccc3)cc12` (centres unmarked) [Compound 168] showed an inhibition at 10 µM of 86.4%.
Compound `C=Cc1cc(C(=O)NCc2cccs2)nc2c(C(F)(F)F)cc(-c3ccccc3)cc12` [Compound 174] has an inhibition at 10 µM of 63.6%.
In the case of `Cc1cc(-c2nnc(NCC(=O)N(C)C)o2)nc2c(C(F)(F)F)cc(C3CC3)cc12` [Compound 248], the inhibition at 10 µM is reported as 99.9%.
`Cc1cccc(CNC(=O)c2cc(C)c3cc(C4CC4)cc(C(F)(F)F)c3n2)n1` [Compound 83] showed an inhibition at 10 µM of 99.4%.
For `CCCCN(C)c1cc(C(F)(F)F)c2nc(C(=O)NCc3ccccn3)cc(C)c2c1` [Compound 176], the inhibition at 10 µM was 80.4%.
Work on `Cc1cc(C(=O)NCc2ccccn2)nc2c(C(F)(F)F)cc(C3CC3)cc12` [Compound 79] yielded an inhibition at 10 µM of 100%.
Compound `CNc1cc(C(=O)NCc2ccccn2)nc2c(C(F)(F)F)cc(C3CC3)cc12` [Compound 216] has an inhibition at 10 µM of 98.2%.

Same assay, conditions: Hepatitis C virus, Huh-7, 72 h, HCV1B replicon, Huh-7 cells, 3 days; read-out: EC50_HCV1B_
With `Cc1cc(-c2nnc(N[C@H]3CC[C@](O)(CF)C3)o2)nc2c(C(C)(C)C)cc(OCC(F)(F)F)cc12` [Compound 491] the EC50 was 0.57 nM.
`CC(C)(O)CCNc1nnc(-c2cc(N)c3cc(C4CC4)cc(C(C)(C)C)c3n2)o1` [Compound 367] gave an EC50 of 2.15 nM.
Work on `Cc1cc(-c2nnc(NCC3(CO)CC3)s2)nc2c(C(F)(F)F)cc(C3CC3)cc12` [Compound 306] yielded an EC50 of 1410 nM.
With `Cc1cc(-c2nnc(NC[C@H]3C[C@@H](O)C3)o2)nc2c(C(C)(C)C)cc(C3CC3)cc12` [Compound 417] the EC50 was 6.11 nM.
`CCC(CNC(=O)c1cc(N)c2cc(OC(F)F)cc(C(F)(F)F)c2n1)=NOC` [Compound 316] showed an EC50 of 61.8 nM.
For `Cc1cc(-c2nnc(N[C@@H]3CCOC3)o2)nc2c(C(C)(C)C)cc(OCC(F)(F)F)cc12` [Compound 450], the EC50 was 3.15 nM.
`Cc1cc(-c2nnc(N[C@H]3C[C@](O)(CCF)C3)o2)nc2c(C(C)(C)C)cc(OCC(F)(F)F)cc12` [Compound 482] was tested, and the EC50 was 2.96 nM.
Compound `Cc1cc(-c2nnc(N[C@H]3C[C@@H](O)C3)o2)nc2c(C(C)(C)C)cc(OCC(F)(F)F)cc12` [Compound 462] has an EC50 of 1.54 nM.
With `Cc1cc(-c2nnc(NCCO)s2)nc2c(C(F)(F)F)cc(C3CC3)cc12` [Compound 308] the EC50 was 66 nM.
In the case of `Cc1cc(-c2nnc(NCC3OCCO3)o2)nc2c(C(C)(C)C)cc(OCC(F)(F)F)cc12` [Compound 448], the EC50 is reported as 1.57 nM.
`Cc1cc(-c2nnc(NC3CCOCC3)o2)nc2c(C(C)(C)C)cc(OCC(F)(F)F)cc12` [Compound 488] gave an EC50 of 6.82 nM.
In the case of `CC(C)(C)c1cc(C2CC2)cc2c(N)cc(-c3nnc(NC[C@@H]4CCCO4)o3)nc12` [Compound 350], the EC50 is reported as 1.9 nM.
With `CCCNc1nnc(-c2cc(C)c3cc(C4CC4)cc(C(F)(F)F)c3n2)o1` [Compound 387] the EC50 was 3.3 nM.
Compound `Cc1cc(-c2nnc(Nc3cn[nH]c3)s2)nc2c(C(C)(C)C)cc(C3CC3)cc12` [Compound 382] has an EC50 of 14.2 nM.
For `Cc1cc(-c2nnc(N[C@H]3CC[C@@](O)(CF)C3)o2)nc2c(C(C)(C)C)cc(OCC(F)(F)F)cc12` [Compound 492], the EC50 was 19.3 nM.
In the case of `CC(C)(C)c1cc(C2CC2)cc2c(Cl)cc(-c3nnc(Nc4ccccc4)o3)nc12` [Compound 349], the EC50 is reported as 26.9 nM.
Work on `Cc1cc(-c2nnc(N(CO)CC3OCCO3)o2)nc2c(C(C)(C)C)cc(C3CC3)cc12` [Compound 404] yielded an EC50 of 2.18 nM.
`Cc1cc(-c2nnc(NCC3OCCO3)o2)nc2c(C(C)(C)F)cc(C3CC3)cc12` [Compound 546] was tested, and the EC50 was 7.48 nM.
Compound `Cc1cc(C(=O)NC[C@@H]2CC3(CN2)OCCO3)nc2c(OC(F)(F)F)cc(C3CC3)cc12` [Compound 443] has an EC50 of 18.8 nM.
Compound `Cc1cc(-c2nnc(NCC3CC(F)(F)CN3)s2)nc2c(C(F)(F)F)cc(C3CC3)cc12` (centres unmarked) [Compound 310] has an EC50 of 1570 nM.
For `Cc1cc(-c2nnc(NCC3OCCO3)o2)nc2c(C(C)(C)C)cc(OCC(F)(F)C(F)(F)F)cc12` [Compound 523], the EC50 was 233 nM.
Compound `CC(C)(O)CCNc1nnc(-c2cc(N)c3cc(C4CC4)cc(C(C)(C)C)c3n2)s1` [Compound 383] has an EC50 of 4.85 nM.
`CC(C)(C)c1cc(C2CC2)cc2c(N)cc(C(=O)NCc3cnccn3)nc12` [Compound 320] was tested, and the EC50 was 1.7 nM.
`CO[C@H]1CN[C@H](CNC(=O)c2nc(N)c3cc(C4CC4)cc(C(C)(C)C)c3n2)C1` [Compound 432] showed an EC50 of 83.3 nM.
`Cc1cc(-c2nnc(NC3CNCC3O)o2)nc2c(C(C)(C)C)cc(C3CC3)cc12` (centres unmarked) [Compound 396] was tested, and the EC50 was 1110 nM.
For `Cc1cc(-c2nnc(NCC3OCCO3)o2)nc2c(C3(C)SCCS3)cc(C3CC3)cc12` [Compound 544], the EC50 was 46.7 nM.
Compound `Cc1cc(-c2nnc(N[C@H]3C[C@@](C)(O)C3)o2)nc2c(C(C)(C)C)cc(OC(F)F)cc12` [Compound 525] has an EC50 of 0.74 nM.
`CC(=O)N1CCNC(CNC(=O)c2cc(N)c3cc(OC(F)F)cc(C(F)(F)F)c3n2)C1` (centres unmarked) [Compound 317] showed an EC50 of 9790 nM.
`Cc1cc(-c2nnc(NCC(=O)N(C)C)o2)nc2c(C(C)(C)C)cc(OCC(F)(F)F)cc12` [Compound 453] was tested, and the EC50 was 14.9 nM.
`Cc1cc(-c2nnc(N[C@H]3C[S@@+]([O-])C3)o2)nc2c(C(C)(C)C)cc(OCC(F)(F)F)cc12` [Compound 507] showed an EC50 of 19.1 nM.
Compound `Cc1cc(C(=O)NC[C@@H]2CS(=O)(=O)CCN2)nc2c(OC(F)(F)F)cc(C3CC3)cc12` [Compound 441] has an EC50 of 12.4 nM.
`Cc1cc(-c2nnc(NCC3OCCO3)o2)nc2c(C(C)(C)O)cc(C3CC3)cc12` [Compound 542] gave an EC50 of 43.8 nM.
With `Cc1cc(C(=O)NC[C@@H]2CC3(CN2)OCCO3)nc2c(C(F)(F)F)cc(OCC(F)(F)F)cc12` [Compound 511] the EC50 was 32.3 nM.
`Cc1cc(-c2nnc(NCC3CC(F)(F)CN3)s2)nc2c(C(C)(C)C)cc(C3CC3)cc12` (centres unmarked) [Compound 381] gave an EC50 of 2930 nM.
In the case of `Cc1cc(C(=O)NC[C@@H]2C[C@](C)(O)CN2)nc2c(C(C)(C)C)cc(C3CC3)cc12` [Compound 429], the EC50 is reported as 294 nM.
`CO[C@H]1CN[C@H](CNC(=O)c2cc(C)c3cc(C4CC4)cc(C(C)(C)C)c3n2)C1` [Compound 425] gave an EC50 of 12.4 nM.
`CC(C)(C)c1cc(C2CC2)cc2c(N)cc(C(=O)NCc3ncccn3)nc12` [Compound 319] was tested, and the EC50 was 0.81 nM.
For `Cc1cc(-c2nnc(NCC3OCCO3)o2)nc2c(C(C)(C)C)cc(OCC(F)F)cc12` [Compound 526], the EC50 was 1.64 nM.

Same assay, conditions: Hepatitis C virus, Huh-7, 72 h; read-out: Inhibition @ 10 uM in 1b-Rluc
Compound `CNC(=O)CNc1nnc(-c2cc(C)c3cc(C4CC4)cc(C(F)(F)F)c3n2)o1` [Compound 264] has an inhibition at 10 µM of 99.8%.
